This is an account of results in patent US11993599B2, “Therapeutic compounds” (Genentech, Inc., priority 2021, dated 2024).

Molecules are shown by their SMILES. A value given as a limit tells only on which side of the number the result lay.

The target of assay [1] is T1, BRG1 (Homo sapiens, UniProt P51532).
T1 construct: either BRM primary antibody (Cell signaling Cat #11966) or BRG primary antibody (Abcam, ab 110641); endogenous in cells; host or cells: SW1573
Description: Immunofluorescence assay for BRG1 degradation in SW1573 cells. Type of assay: cell-based. The conditions noted are these: 20 hours incubation; for DC50: immunofluorescence mean nuclear signal, read-out: BRG1 IF Degradation IC50; for Dmax: SW1573, 20 h, normalized to a known degrader control, read-out: BRG1 IF Degradation Sinf (%). In outline:
(§1)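 SW1573 cells were treated with compound for 20 h, fixed, permeabilized and immunostained for BRM or BRG1 with a Hoechst nuclear counterstain. Mean nuclear signal intensity per cell was quantified by high-content imaging, normalized to a known degrader control, and dose-response curves were fit with a floating maximum to derive Dmax.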

Assay [2] deals with BRM (Homo sapiens, UniProt P51531). The assay can be described thus: Immunofluorescence assay for BRM degradation in SW1573 cells. Type of assay: cell-based. On the set-up: treated overnight at 4° C. with either BRM primary antibody (Cell signaling Cat #11966) or BRG primary antibody; endogenous in cells; host or cells: SW1573. The conditions noted are these: 20 hours incubation; for DC50: immunofluorescence mean nuclear signal, read-out: BRM IF Degradation IC50; for BRM IF Degradation Sinf (%): normalized to a known degrader control. A digest of the protocol:
as §1

T1 sequence (P51532 whole entry): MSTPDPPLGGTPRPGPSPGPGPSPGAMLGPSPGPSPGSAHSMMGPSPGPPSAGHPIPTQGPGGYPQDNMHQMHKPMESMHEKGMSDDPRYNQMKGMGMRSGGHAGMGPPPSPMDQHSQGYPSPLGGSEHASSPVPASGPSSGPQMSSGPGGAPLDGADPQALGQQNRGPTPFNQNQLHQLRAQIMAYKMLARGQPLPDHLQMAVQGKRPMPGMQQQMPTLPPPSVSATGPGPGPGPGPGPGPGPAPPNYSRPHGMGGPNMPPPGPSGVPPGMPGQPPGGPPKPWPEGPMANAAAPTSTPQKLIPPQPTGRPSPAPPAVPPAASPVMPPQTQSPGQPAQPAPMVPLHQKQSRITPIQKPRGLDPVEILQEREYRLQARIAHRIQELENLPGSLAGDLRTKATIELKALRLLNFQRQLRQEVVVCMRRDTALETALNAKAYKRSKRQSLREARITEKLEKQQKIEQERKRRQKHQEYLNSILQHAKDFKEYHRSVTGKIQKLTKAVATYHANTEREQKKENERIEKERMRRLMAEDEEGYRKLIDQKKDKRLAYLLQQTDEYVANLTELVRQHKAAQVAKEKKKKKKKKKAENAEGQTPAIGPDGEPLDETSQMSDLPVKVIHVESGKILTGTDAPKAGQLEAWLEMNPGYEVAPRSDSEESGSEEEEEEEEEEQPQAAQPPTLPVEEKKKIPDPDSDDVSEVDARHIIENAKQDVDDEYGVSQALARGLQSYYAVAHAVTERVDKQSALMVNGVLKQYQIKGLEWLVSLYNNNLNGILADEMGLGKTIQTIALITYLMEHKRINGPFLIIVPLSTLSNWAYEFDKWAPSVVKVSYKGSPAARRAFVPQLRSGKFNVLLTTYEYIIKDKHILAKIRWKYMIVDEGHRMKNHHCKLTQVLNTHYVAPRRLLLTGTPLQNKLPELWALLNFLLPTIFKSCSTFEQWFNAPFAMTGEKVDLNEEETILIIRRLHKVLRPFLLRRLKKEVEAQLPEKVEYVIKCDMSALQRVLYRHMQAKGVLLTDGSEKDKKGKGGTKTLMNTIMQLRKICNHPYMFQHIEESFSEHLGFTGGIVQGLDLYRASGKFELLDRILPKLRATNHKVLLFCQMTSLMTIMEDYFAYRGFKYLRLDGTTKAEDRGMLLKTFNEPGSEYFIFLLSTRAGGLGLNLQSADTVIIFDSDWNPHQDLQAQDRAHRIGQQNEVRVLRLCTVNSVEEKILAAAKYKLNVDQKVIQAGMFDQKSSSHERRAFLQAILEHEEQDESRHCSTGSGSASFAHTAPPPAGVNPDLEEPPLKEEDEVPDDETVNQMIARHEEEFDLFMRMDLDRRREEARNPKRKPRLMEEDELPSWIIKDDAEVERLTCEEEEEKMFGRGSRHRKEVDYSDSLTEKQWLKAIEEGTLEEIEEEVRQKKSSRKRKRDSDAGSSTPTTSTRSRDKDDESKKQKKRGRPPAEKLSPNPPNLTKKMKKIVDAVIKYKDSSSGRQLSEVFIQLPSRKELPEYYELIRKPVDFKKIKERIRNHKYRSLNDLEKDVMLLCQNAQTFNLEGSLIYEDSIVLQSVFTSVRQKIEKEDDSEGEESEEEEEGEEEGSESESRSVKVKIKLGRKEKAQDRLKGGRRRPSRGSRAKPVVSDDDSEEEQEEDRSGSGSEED
Chain of BRM (P51531 whole entry): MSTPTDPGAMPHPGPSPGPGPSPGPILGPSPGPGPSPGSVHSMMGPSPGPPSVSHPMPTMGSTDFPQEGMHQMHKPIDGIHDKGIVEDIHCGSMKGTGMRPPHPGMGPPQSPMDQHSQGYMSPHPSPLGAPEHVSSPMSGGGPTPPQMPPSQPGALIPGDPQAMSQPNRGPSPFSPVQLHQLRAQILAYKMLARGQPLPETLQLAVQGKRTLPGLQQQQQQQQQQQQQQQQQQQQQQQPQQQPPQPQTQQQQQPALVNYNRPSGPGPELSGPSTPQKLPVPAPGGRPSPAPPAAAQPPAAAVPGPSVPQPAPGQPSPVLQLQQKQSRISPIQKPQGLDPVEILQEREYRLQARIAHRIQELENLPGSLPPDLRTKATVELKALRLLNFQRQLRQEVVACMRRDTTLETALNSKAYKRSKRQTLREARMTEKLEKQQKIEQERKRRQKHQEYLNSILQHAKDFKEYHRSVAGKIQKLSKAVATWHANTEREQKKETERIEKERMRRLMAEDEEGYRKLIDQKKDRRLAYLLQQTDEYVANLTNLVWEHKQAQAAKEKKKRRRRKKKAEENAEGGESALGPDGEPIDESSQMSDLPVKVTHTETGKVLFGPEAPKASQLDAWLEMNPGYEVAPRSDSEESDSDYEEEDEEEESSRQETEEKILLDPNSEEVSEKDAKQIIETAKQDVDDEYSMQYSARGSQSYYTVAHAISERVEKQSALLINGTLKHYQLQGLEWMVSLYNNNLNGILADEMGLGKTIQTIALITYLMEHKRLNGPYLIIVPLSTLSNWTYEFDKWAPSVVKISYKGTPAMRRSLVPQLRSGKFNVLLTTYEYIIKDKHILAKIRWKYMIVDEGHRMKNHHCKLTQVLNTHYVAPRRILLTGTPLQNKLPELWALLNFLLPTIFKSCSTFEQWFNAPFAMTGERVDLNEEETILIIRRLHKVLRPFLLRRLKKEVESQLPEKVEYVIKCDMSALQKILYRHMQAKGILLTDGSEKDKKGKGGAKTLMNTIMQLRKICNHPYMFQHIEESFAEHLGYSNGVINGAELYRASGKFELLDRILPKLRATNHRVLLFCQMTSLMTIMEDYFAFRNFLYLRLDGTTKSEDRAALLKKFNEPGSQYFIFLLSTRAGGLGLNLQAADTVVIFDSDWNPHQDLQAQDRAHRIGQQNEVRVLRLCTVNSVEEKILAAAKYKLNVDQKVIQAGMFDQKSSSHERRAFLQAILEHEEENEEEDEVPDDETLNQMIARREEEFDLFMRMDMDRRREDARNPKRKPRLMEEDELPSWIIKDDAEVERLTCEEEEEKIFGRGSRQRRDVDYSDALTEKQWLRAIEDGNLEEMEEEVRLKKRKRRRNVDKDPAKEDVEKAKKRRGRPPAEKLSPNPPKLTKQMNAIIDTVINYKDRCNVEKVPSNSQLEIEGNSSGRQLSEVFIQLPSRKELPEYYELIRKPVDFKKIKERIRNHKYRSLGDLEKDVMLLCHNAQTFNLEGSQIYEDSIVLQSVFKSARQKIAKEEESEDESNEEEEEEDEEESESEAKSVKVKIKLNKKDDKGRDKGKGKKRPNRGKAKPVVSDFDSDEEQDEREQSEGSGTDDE

Turning to `Nc1nnc(-c2ccccc2O)cc1N1CC2CCC(C1)N2c1ccnc(C#CCN2CCC[C@@H]3CC[C@@H]32)c1` [Compound 102, 2-[6-amino-5-[8-[2-[3-[(1S,6R)-2-azabicyclo[4.2.0]octan-2-yl]prop-1-ynyl]-4-pyridyl]-3,8-diazabicyclo[3.2.1]octan-3-yl]pyridazin-3-yl]phenol], in assay [1], the DC50 is less than 10 nM and the Dmax was in the range of 30 to 70%. In addition, in assay [2], the DC50 is less than 10 nM and the “BRM IF Degradation Sinf (%)” value is on record as “E (E indicates −30%-−70%)”.
For `Nc1nnc(-c2ccccc2O)cc1N1CC2CCC(C1)N2c1ccnc(C#CCN2C3CCC(C3)C2CO)c1` (centres unmarked) [Compound 103, 2-[6-amino-5-[8-[2-[3-[3-(hydroxymethyl)-2-azabicyclo[2.2.1]heptan-2-yl]prop-1-ynyl]-4-pyridyl]-3,8-diazabicyclo[3.2.1]octan-3-yl]pyridazin-3-yl]phenol], in assay [1], the DC50 was greater than 100 nM and the Dmax is 30 to 70%. In assay [2], the DC50 is less than 10 nM and the “BRM IF Degradation Sinf (%)” value is given as “E (E indicates −30%-−70%)”.
Taken in the same sequence, the figures for `Nc1nnc(-c2ccccc2O)cc1N1CC2CCC(C1)N2c1ccnc(C#CCN2CCC3CC2CO3)c1` (centres unmarked) [Compound 104, 2-[6-amino-5-[8-[2-[3-(6-oxa-2-azabicyclo[3.2.1]octan-2-yl)prop-1-ynyl]-4-pyridyl]-3,8-diazabicyclo[3.2.1]octan-3-yl]pyridazin-3-yl]phenol] were less than 10 nM, 0 to 30%, less than 10 nM and “E (E indicates −30%-−70%)”.
`Nc1nnc(-c2ccccc2O)cc1N1CC2CCC(C1)N2c1ccnc(C#CCN2CC3CC3(O)C2)c1` (centres unmarked) [Compound 105, 3-(3-(4-(3-(3-amino-6-(2-hydroxyphenyl)pyridazin-4-yl)-3,8-diazabicyclo[3.2.1]octan-8-yl)pyridin-2-yl)prop-2-yn-1-yl)-3-azabicyclo[3.1.0]hexan-1-ol]: in assay [1], the DC50 fell in the range of 10 to 100 nM and the Dmax was 0 to 30%. Further, in assay [2], the DC50 was in the range of 10 to 100 nM and the “BRM IF Degradation Sinf (%)” value is given as “E (E indicates −30%-−70%)”.
Turning to `Nc1nnc(-c2ccccc2O)cc1N1CC2CCC(C1)N2c1ccnc(C#CCN2CCCC23CCC3)c1` [Compound 106, 2-[6-amino-5-[8-[2-[3-(5-azaspiro[3.4]octan-5-yl)prop-1-ynyl]-4-pyridyl]-3,8-diazabicyclo[3.2.1]octan-3-yl]pyridazin-3-yl]phenol], in assay [1], the DC50 is less than 10 nM and the Dmax was 30 to 70%. In assay [2], the DC50 is less than 10 nM and the “BRM IF Degradation Sinf (%)” value is recorded as “E (E indicates −30%-−70%)”.
Consider `Nc1nnc(-c2ccccc2O)cc1N1CC2CCC(C1)N2c1ccnc(C#CCN2CCn3cccc3C2)c1` [Compound 107, 2-[6-amino-5-[8-[2-[3-(3,4-dihydro-1H-pyrrolo[l,2-a]pyrazin-2-yl)prop-1-ynyl]-4-pyridyl]-3,8-diazabicyclo[3.2.1]octan-3-yl]pyridazin-3-yl]phenol], for which, in assay [1], the DC50 was in the range of 10 to 100 nM and the Dmax is 0 to 30%. In assay [2], the DC50 was 10 to 100 nM and the “BRM IF Degradation Sinf (%)” value is “E (E indicates −30%-−70%)”.
As for `CN1C[C@@H]2CN(CC#Cc3cc(N4C5CCC4CN(c4cc(-c6ccccc6O)nnc4N)C5)ccn3)C[C@@H]2C1` [Compound 108, 2-[5-[8-[2-[3-[(3aS,6aR)-2-methyl-1,3,3a,4,6,6a-hexahydropyrrolo[3,4-c]pyrrol-5-yl]prop-1-ynyl]-4-pyridyl]-3,8-diazabicyclo[3.2.1]octan-3-yl]-6-amino-pyridazin-3-yl]phenol], the DC50 in assay [1] was greater than 100 nM. Further, in assay [2], the DC50 is greater than 100 nM and the “BRM IF Degradation Sinf (%)” value was “E (E indicates −30%-−70%)”.
For `Nc1nnc(-c2ccccc2O)cc1N1CC2CCC(C1)N2c1ccnc(C#CCN2C[C@@H]3C[C@@H](O)[C@H]2C3)c1` [Compound 109, (1R,4S,6R)-2-[3-[4-[3-[3-amino-6-(2-hydroxyphenyl)pyridazin-4-yl]-3,8-diazabicyclo[3.2.1]octan-8-yl]-2-pyridyl]prop-2-ynyl]-2-azabicyclo[2.2.1]heptan-6-ol], in assay [1], the DC50 was less than 10 nM and the Dmax was 30 to 70%. In assay [2], the DC50 is less than 10 nM and the “BRM IF Degradation Sinf (%)” value was “E (E indicates −30%-−70%)”.
Take `Nc1nnc(-c2ccccc2O)cc1N1CC2CCC(C1)N2c1ccnc(C#CCN2CCCOCC23CC3)c1` [Compound 110, 2-[6-amino-5-[8-[2-[3-(8-oxa-4-azaspiro[2.6]nonan-4-yl)prop-1-ynyl]-4-pyridyl]-3,8-diazabicyclo[3.2.1]octan-3-yl]pyridazin-3-yl]phenol]: the DC50 in assay [1] was greater than 100 nM. In assay [2], the DC50 is less than 10 nM and the “BRM IF Degradation Sinf (%)” value was “E (E indicates −30%-−70%)”.
Regarding `Nc1nnc(-c2ccccc2O)cc1N1CC2CCC(C1)N2c1ccnc(C#CCN2C3CCCC2COC3)c1` [Compound 111, 2-[6-amino-5-[8-[2-[3-(3-oxa-9-azabicyclo[3.3.1]nonan-9-yl)prop-1-ynyl]-4-pyridyl]-3,8-diazabicyclo[3.2.1]octan-3-yl]pyridazin-3-yl]phenol], in assay [1], the DC50 was less than 10 nM and the Dmax is 0 to 30%. Besides, in assay [2], the DC50 is less than 10 nM and the “BRM IF Degradation Sinf (%)” value was “E (E indicates −30%-−70%)”.
Take `Nc1nnc(-c2ccccc2O)cc1N1CC2CCC(C1)N2c1ccnc(C#CCN2CCOC(F)(F)C2)c1` [Compound 112, 2-[6-amino-5-[8-[2-[3-(2,2-difluoromorpholin-4-yl)prop-1-ynyl]-4-pyridyl]-3,8-diazabicyclo[3.2.1]octan-3-yl]pyridazin-3-yl]phenol]: in assay [1], the DC50 fell in the range of 10 to 100 nM and the Dmax lay within 0 to 30%. Further, in assay [2], the DC50 is less than 10 nM and the “BRM IF Degradation Sinf (%)” value is “E (E indicates −30%-−70%)”.
`Nc1nnc(-c2ccccc2O)cc1N1CC2CCC(C1)N2c1ccnc(C#CCN2C[C@H]3CCO[C@H]3C2)c1` [Compound 113, 2-[5-[8-[2-[3-[(3aR,6aR)-2,3,3a,4,6,6a-hexahydrofuro[2,3-c]pyrrol-5-yl]prop-1-ynyl]-4-pyridyl]-3,8-diazabicyclo[3.2.1]octan-3-yl]-6-amino-pyridazin-3-yl]phenol]: in assay [1], the DC50 is less than 10 nM and the Dmax was 0 to 30%. In assay [2], the DC50 was 10 to 100 nM and the “BRM IF Degradation Sinf (%)” value was “E (E indicates −30%-−70%)”.
Turning to `Nc1nnc(-c2ccccc2O)cc1N1CC2CCC(C1)N2c1ccnc(C#CCN2CCOC(CF)C2)c1` (centres unmarked) [Compound 114, 2-[6-amino-5-[8-[2-[3-[2-(fluoromethyl)morpholin-4-yl]prop-1-ynyl]-4-pyridyl]-3,8-diazabicyclo[3.2.1]octan-3-yl]pyridazin-3-yl]phenol], the DC50 in assay [1] was greater than 100 nM. For the same compound, in assay [2], the DC50 is 10 to 100 nM and the “BRM IF Degradation Sinf (%)” value is given as “E (E indicates −30%-−70%)”.
On to `Nc1nnc(-c2ccccc2O)cc1N1CC2CCC(C1)N2c1ccnc(C#CCN2C[C@H]3CC[C@@H]2C3)c1` [Compound 115, 2-[6-amino-5-[8-[2-[3-[(1R,4S)-2-azabicyclo[2.2.1]heptan-2-yl]prop-1-ynyl]-4-pyridyl]-3,8-diazabicyclo[3.2.1]octan-3-yl]pyridazin-3-yl]phenol], for which, in assay [1], the DC50 was less than 10 nM and the Dmax lay within 30 to 70%. Besides, in assay [2], the DC50 was less than 10 nM and the “BRM IF Degradation Sinf (%)” value is given as “E (E indicates −30%-−70%)”.
For the compound `Nc1nnc(-c2ccccc2O)cc1N1CC2CCC(C1)N2c1ccnc(C#CCN2CC3CC2(CO)C3)c1` [Compound 116, 2-[6-amino-5-[8-[2-[3-[1-(hydroxymethyl)-2-azabicyclo[2.1.1]hexan-2-yl]prop-1-ynyl]-4-pyridyl]-3,8-diazabicyclo[3.2.1]octan-3-yl]pyridazin-3-yl]phenol], in assay [1], the DC50 was less than 10 nM and the Dmax was 0 to 30%. Also, in assay [2], the DC50 lay within 10 to 100 nM and the “BRM IF Degradation Sinf (%)” value was “E (E indicates −30%-−70%)”.
With `Nc1nnc(-c2ccccc2O)cc1N1CC2CCC(C1)N2c1ccnc(C#CCN2CC[C@@]3(O)C[C@H]3C2)c1` [Compound 117, (1S,6S)-3-[3-[4-[3-[3-amino-6-(2-hydroxyphenyl)pyridazin-4-yl]-3,8-diazabicyclo[3.2.1]octan-8-yl]-2-pyridyl]prop-2-ynyl]-3-azabicyclo[4.1.0]heptan-6-ol], in assay [1], the DC50 is 10 to 100 nM and the Dmax lay within 0 to 30%. Besides, in assay [2], the DC50 is 10 to 100 nM and the “BRM IF Degradation Sinf (%)” value is “E (E indicates −30%-−70%)”.
On to `Nc1nnc(-c2ccccc2O)cc1N1CC2CCC(C1)N2c1ccnc(C#CCN2C[C@@H]3[C@@H](CO)[C@@H]3C2)c1` [Compound 118, 2-[6-amino-5-[8-[2-[3-[(1S,5R)-6-(hydroxymethyl)-3-azabicyclo[3.1.0]hexan-3-yl]prop-1-ynyl]-4-pyridyl]-3,8-diazabicyclo[3.2.1]octan-3-yl]pyridazin-3-yl]phenol], for which, in assay [1], the DC50 is less than 10 nM and the Dmax lay in the range of 30 to 70%. In assay [2], the DC50 was in the range of 10 to 100 nM and the “BRM IF Degradation Sinf (%)” value is “E (E indicates −30%-−70%)”.
Turning to `CC1(C)CN(CC#Cc2cc(N3C4CCC3CN(c3cc(-c5ccccc5O)nnc3N)C4)ccn2)CCO1` [Compound 119, 2-[6-amino-5-[8-[2-[3-(2,2-dimethylmorpholin-4-yl)prop-1-ynyl]-4-pyridyl]-3,8-diazabicyclo[3.2.1]octan-3-yl]pyridazin-3-yl]phenol], the DC50 in assay [1] and in assay [2] was greater than 100 nM each time. Moreover, the “BRM IF Degradation Sinf (%)” value in assay [2] is “E (E indicates −30%-−70%)”.
